Reference: patent US12544325B2, “Compositions and related methods” (Colgate-Palmolive Company, priority 2020, dated 2026)

How the values were obtained:
[1] = Dissolution of amine fluoride in water without additional salts (saturation concentration); settings: no salts
Protocol: Amine fluoride is added in increasingly greater amounts to determine its saturation concentration, shown below in Table 1A.

[2] = Dissolution of amine fluoride in water with addition of alkali salts
From the text: Similar formulations are created also containing one or more alkali salts, selected from sodium chloride, potassium chloride and trisodium citrate dihydrate to investigate the effect of the salts' presence on solubility of the amine fluoride.

[3] = background statement; cited from earlier work
[4] = Dissolution of tertiary amine with HCl and sodium fluoride, without and with sodium chloride; type: physicochemical; settings: hydrochloric acid, sodium fluoride and alkali salt added; compared to absence of additional inorganic salts
From the text: A new batch of solutions was created similar to those shown in Table 2B, but with the addition of sodium fluoride.

[5] = Dissolution of tertiary amine in water without inorganic salts, with or without HCl; type: physicochemical
From the text: Similar compositions were created as those listed in Table 1A, but instead of amine fluoride, a tertiary amine was used.

[6] = Dissolution of tertiary amine with HCl and addition of alkali salts; type: physicochemical
Protocol: Further compositions containing the tertiary amine and hydrochloric acid were created. To these solutions, various quantities of alkali salts were added to evaluate the effect on solubility of the tertiary amine.

[7] = when adding sodium chloride (composition 10)
[8] = with hydrochloric acid and about 5% alkali salt (composition 34)

Structure (SMILES) | maximum solubility of amine fluoride in water [1] | maximum solubility of amine fluoride in water as concentration of tertiary amine ([1]; amine fluoride fully dissociated from hydrofluoride) | lowest concentration of sodium chloride shown to increase solubility of amine fluoride in water ([2]; sodium chloride) | solubility of amine fluoride in water [2, 7] | solubility of amine fluoride in water as concentration of tertiary amine [2, 7] | aqueous solubility [3] | change of solubility of the tertiary amine [4] | solubility of tertiary amine as concentration ([5]; with hydrochloric acid corresponding to hydronium level of equivalent amine fluoride) | solubility of tertiary amine ([5]; with hydrochloric acid corresponding to hydronium level of equivalent amine fluoride (compositions 21-23)) | solubility of the tertiary amine in water ([5]; without adjustment of pH) | solubility of the tertiary amine in water as concentration ([5]; without adjustment of pH) | minimum addition of Sodium Chloride to fully dissolve 34% of tertiary amine ([6]; with hydrochloric acid) | solubility of tertiary amine in water [6, 8] | solubility of tertiary amine in water as concentration [6, 8]
CCCCCCCCCCCCCCCCCCN(CCO)CCCN(CCO)CCO.F.F [amine fluoride, N′-octadecyltrimethylendiamine-N,N,N′-tris(2-ethanol)-dihydrofluoride] | approximately 24 % by weight | about 440 mM | about 0.7% | above 35 % by weight | about 640 mM | very low aqueous solubility | – | – | – | – | – | – | – | –
CCCCCCCCCCCCCCCCCCN(CCO)CCCN(CCO)CCO [tertiary amine, N′-octadecyltrimethylendiamine-N,N,N′-tris(2-ethanol)] | – | – | – | – | – | – | not increased any further | about 530 mM | above 24% | about 70 % by weight | about 1520 mM | about 1% | about 40 % by weight | about 870 mM
